{"source": "PubChem BioAssay (NCI)", "assay_in_all_cases": "growth of human tumour cells (NCI), 48 h", "key": {"CAKI-1 renal": {"test_system": "CAKI-1 renal"}, "SF-268 CNS": {"test_system": "SF-268 CNS"}, "LOX IMVI melanoma": {"test_system": "LOX IMVI melanoma"}, "HOP-92 NSCLC": {"test_system": "HOP-92 NSCLC"}, "TK-10 renal": {"test_system": "TK-10 renal"}, "A549 NSCLC": {"test_system": "A549 NSCLC"}, "SN12C renal": {"test_system": "SN12C renal"}, "SK-MEL-5 melanoma": {"test_system": "SK-MEL-5 melanoma"}, "SK-OV-3 ovarian": {"test_system": "SK-OV-3 ovarian"}, "HOP-62 NSCLC": {"test_system": "HOP-62 NSCLC"}, "RPMI-8226 leukemia": {"test_system": "RPMI-8226 leukemia"}, "MDA-MB-435": {"test_system": "MDA-MB-435"}, "HS 578T breast": {"test_system": "HS 578T breast"}, "SR leukemia": {"test_system": "SR leukemia"}, "U251 CNS": {"test_system": "U251 CNS"}, "OVCAR-8 ovarian": {"test_system": "OVCAR-8 ovarian"}, "EKVX NSCLC": {"test_system": "EKVX NSCLC"}, "MDA-MB-231 breast": {"test_system": "MDA-MB-231 breast"}, "HCT-116 colon": {"test_system": "HCT-116 colon"}, "MDA-N": {"test_system": "MDA-N"}, "OVCAR-5 ovarian": {"test_system": "OVCAR-5 ovarian"}, "UACC-62 melanoma": {"test_system": "UACC-62 melanoma"}, "RXF 393 renal": {"test_system": "RXF 393 renal"}, "SNB-19 CNS": {"test_system": "SNB-19 CNS"}, "MOLT-4 leukemia": {"test_system": "MOLT-4 leukemia"}, "KM12 colon": {"test_system": "KM12 colon"}, "ACHN renal": {"test_system": "ACHN renal"}, "HCC-2998 colon": {"test_system": "HCC-2998 colon"}, "NCI-H226 lung": {"test_system": "NCI-H226 lung"}, "SF-539 CNS": {"test_system": "SF-539 CNS"}, "SW-620 colon": {"test_system": "SW-620 colon"}, "NCI-H522 lung": {"test_system": "NCI-H522 lung"}, "SK-MEL-2 melanoma": {"test_system": "SK-MEL-2 melanoma"}, "T-47D breast": {"test_system": "T-47D breast"}, "IGROV1 ovarian": {"test_system": "IGROV1 ovarian"}, "UO-31 renal": {"test_system": "UO-31 renal"}, "HL-60(TB) leukemia": {"test_system": "HL-60(TB) leukemia"}, "NCI-H23 lung": {"test_system": "NCI-H23 lung"}, "A498 renal": {"test_system": "A498 renal"}, "M14 melanoma": {"test_system": "M14 melanoma"}, "MALME-3M melanoma": {"test_system": "MALME-3M melanoma"}, "PC-3 prostate": {"test_system": "PC-3 prostate"}, "786-0 renal": {"test_system": "786-0 renal"}, "NCI-H460 lung": {"test_system": "NCI-H460 lung"}, "K-562 leukemia": {"test_system": "K-562 leukemia"}, "OVCAR-3 ovarian": {"test_system": "OVCAR-3 ovarian"}, "NCI/ADR-RES ovarian": {"test_system": "NCI/ADR-RES ovarian"}, "DU-145 prostate": {"test_system": "DU-145 prostate"}, "UACC-257 melanoma": {"test_system": "UACC-257 melanoma"}, "SK-MEL-28 melanoma": {"test_system": "SK-MEL-28 melanoma"}, "HCT-15 colon": {"test_system": "HCT-15 colon"}, "COLO 205 colon": {"test_system": "COLO 205 colon"}, "MCF7 breast": {"test_system": "MCF7 breast"}, "SF-295 CNS": {"test_system": "SF-295 CNS"}, "CCRF-CEM leukemia": {"test_system": "CCRF-CEM leukemia"}}, "note": "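Values below derive from 48-hour exposures of cells grown in 96-well plates, with endpoints linearly interpolated between the two concentrations bracketing the appropriate inhibition level. TGI marks complete inhibition of growth.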", "data": [{"compound": "O=C1CN(/N=C/c2ccc(-c3ccc(F)cc3)o2)C(=O)N1", "values": [{"measurement": "TGI", "setting": "CAKI-1 renal", "result": "> 100", "unit": "µM"}, {"measurement": "TGI", "setting": "SF-268 CNS", "result": "> 100", "unit": "µM"}, {"measurement": "TGI", "setting": "LOX IMVI melanoma", "result": "> 100", "unit": "µM"}, {"measurement": "TGI", "setting": "HOP-92 NSCLC", "result": 57.8, "unit": "µM"}, {"measurement": "TGI", "setting": "TK-10 renal", "result": "> 100", "unit": "µM"}, {"measurement": "TGI", "setting": "A549 NSCLC", "result": "> 100", "unit": "µM"}, {"measurement": "TGI", "setting": "SN12C renal", "result": "> 100", "unit": "µM"}, {"measurement": "TGI", "setting": "SK-MEL-5 melanoma", "result": "> 100", "unit": "µM"}, {"measurement": "TGI", "setting": "SK-OV-3 ovarian", "result": "> 100", "unit": "µM"}, {"measurement": "TGI", "setting": "HOP-62 NSCLC", "result": "> 100", "unit": "µM"}, {"measurement": "TGI", "setting": "RPMI-8226 leukemia", "result": "> 100", "unit": "µM"}, {"measurement": "TGI", "setting": "MDA-MB-435", "result": 41.1, "unit": "µM"}, {"measurement": "TGI", "setting": "HS 578T breast", "result": "> 100", "unit": "µM"}, {"measurement": "TGI", "setting": "SR leukemia", "result": 75.7, "unit": "µM"}, {"measurement": "TGI", "setting": "U251 CNS", "result": "> 100", "unit": "µM"}, {"measurement": "TGI", "setting": "OVCAR-8 ovarian", "result": "> 100", "unit": "µM"}, {"measurement": "TGI", "setting": "EKVX NSCLC", "result": "> 100", "unit": "µM"}, {"measurement": "TGI", "setting": "MDA-MB-231 breast", "result": "> 100", "unit": "µM"}, {"measurement": "TGI", "setting": "HCT-116 colon", "result": "> 100", "unit": "µM"}, {"measurement": "TGI", "setting": "MDA-N", "result": 38.6, "unit": "µM"}, {"measurement": "TGI", "setting": "OVCAR-5 ovarian", "result": "> 100", "unit": "µM"}, {"measurement": "TGI", "setting": "UACC-62 melanoma", "result": "> 100", "unit": "µM"}, {"measurement": "TGI", "setting": "RXF 393 renal", "result": "> 100", "unit": "µM"}, {"measurement": "TGI", "setting": "SNB-19 CNS", "result": "> 100", "unit": "µM"}, {"measurement": "TGI", "setting": "MOLT-4 leukemia", "result": "> 100", "unit": "µM"}, {"measurement": "TGI", "setting": "KM12 colon", "result": "> 100", "unit": "µM"}, {"measurement": "TGI", "setting": "ACHN renal", "result": "> 100", "unit": "µM"}, {"measurement": "TGI", "setting": "HCC-2998 colon", "result": "> 100", "unit": "µM"}, {"measurement": "TGI", "setting": "NCI-H226 lung", "result": 88.5, "unit": "µM"}, {"measurement": "TGI", "setting": "SF-539 CNS", "result": "> 100", "unit": "µM"}, {"measurement": "TGI", "setting": "SW-620 colon", "result": "> 100", "unit": "µM"}, {"measurement": "TGI", "setting": "NCI-H522 lung", "result": 85, "unit": "µM"}, {"measurement": "TGI", "setting": "SK-MEL-2 melanoma", "result": "> 100", "unit": "µM"}, {"measurement": "TGI", "setting": "T-47D breast", "result": "> 100", "unit": "µM"}, {"measurement": "TGI", "setting": "IGROV1 ovarian", "result": "> 100", "unit": "µM"}, {"measurement": "TGI", "setting": "UO-31 renal", "result": "> 100", "unit": "µM"}, {"measurement": "TGI", "setting": "HL-60(TB) leukemia", "result": "> 100", "unit": "µM"}, {"measurement": "TGI", "setting": "NCI-H23 lung", "result": "> 100", "unit": "µM"}, {"measurement": "TGI", "setting": "A498 renal", "result": "> 100", "unit": "µM"}, {"measurement": "TGI", "setting": "M14 melanoma", "result": "> 100", "unit": "µM"}, {"measurement": "TGI", "setting": "MALME-3M melanoma", "result": "> 100", "unit": "µM"}, {"measurement": "TGI", "setting": "PC-3 prostate", "result": "> 100", "unit": "µM"}, {"measurement": "TGI", "setting": "786-0 renal", "result": "> 100", "unit": "µM"}, {"measurement": "TGI", "setting": "NCI-H460 lung", "result": "> 100", "unit": "µM"}, {"measurement": "TGI", "setting": "K-562 leukemia", "result": "> 100", "unit": "µM"}, {"measurement": "TGI", "setting": "OVCAR-3 ovarian", "result": "> 100", "unit": "µM"}, {"measurement": "TGI", "setting": "NCI/ADR-RES ovarian", "result": "> 100", "unit": "µM"}, {"measurement": "TGI", "setting": "DU-145 prostate", "result": "> 100", "unit": "µM"}, {"measurement": "TGI", "setting": "UACC-257 melanoma", "result": "> 100", "unit": "µM"}, {"measurement": "TGI", "setting": "SK-MEL-28 melanoma", "result": 83.6, "unit": "µM"}, {"measurement": "TGI", "setting": "HCT-15 colon", "result": "> 100", "unit": "µM"}, {"measurement": "TGI", "setting": "COLO 205 colon", "result": "> 100", "unit": "µM"}, {"measurement": "TGI", "setting": "MCF7 breast", "result": "> 100", "unit": "µM"}, {"measurement": "TGI", "setting": "SF-295 CNS", "result": "> 100", "unit": "µM"}, {"measurement": "TGI", "setting": "CCRF-CEM leukemia", "result": "> 100", "unit": "µM"}]}]}
